Data reported in ChEMBL document CHEMBL1201862, “PubChem BioAssay data set” (2004).
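Values below derive from 48-hour exposures of cells grown in 96-well plates, with endpoints linearly interpolated between the two concentrations bracketing the appropriate inhibition level. The concentration for 50% growth inhibition is given as GI50.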 The source made the active and inactive calls. Rule as the data show it: active = GI50 up to about 1.1 µM and inactive = higher.

What was measured:
Assay in all cases: DTP human tumour cell line panel, 48 h
UACC-62 = tested on: UACC-62
DMS-114 = tested on: DMS-114
SNB-19 = tested on: SNB-19
SK-MEL-2 = tested on: SK-MEL-2
OVCAR-4 = tested on: OVCAR-4
SF-539 = tested on: SF-539
NCI-H23 = tested on: NCI-H23
SK-OV-3 = tested on: SK-OV-3
KM-20L2 = tested on: KM-20L2
OVCAR-8 = tested on: OVCAR-8
RPMI-8226 = tested on: RPMI-8226
CCRF-CEM = tested on: CCRF-CEM
RXF 393 = tested on: RXF 393
SN12C = tested on: SN12C
A549 = tested on: A549
DMS-273 = tested on: DMS-273
M19-MEL = tested on: M19-MEL
NCI/ADR-RES = tested on: NCI/ADR-RES
NCI-H460 = tested on: NCI-H460
UO-31 = tested on: UO-31
Malme-3M = tested on: Malme-3M
U-251 = tested on: U-251
UACC-257 = tested on: UACC-257
COLO 205 = tested on: COLO 205
SW-620 = tested on: SW-620
HCC 2998 = tested on: HCC 2998
HT-29 = tested on: HT-29
HOP-62 = tested on: HOP-62
A498 = tested on: A498
NCI-H226 = tested on: NCI-H226
HL-60 = tested on: HL-60
SK-MEL-28 = tested on: SK-MEL-28
SK-MEL-5 = tested on: SK-MEL-5
K562 = tested on: K562
SNB-78 = tested on: SNB-78
LOX IMVI = tested on: LOX IMVI
DLD-1 = tested on: DLD-1
KM12 = tested on: KM12
OVCAR-3 = tested on: OVCAR-3
CAKI-1 = tested on: CAKI-1
HOP-18 = tested on: HOP-18
MCF7 = tested on: MCF7
SF-268 = tested on: SF-268
HCT-116 = tested on: HCT-116
HCT-15 = tested on: HCT-15
SF-295 = tested on: SF-295
HOP-92 = tested on: HOP-92
IGROV-1 = tested on: IGROV-1
MOLT-4 = tested on: MOLT-4
NCI-H522 = tested on: NCI-H522
OVCAR-5 = tested on: OVCAR-5
SNB-75 = tested on: SNB-75
EKVX = tested on: EKVX
XF498 = tested on: XF498

Structure (SMILES): C[N+](C)(C)CCOC(=O)/C=C/c1c[nH]cn1
- GI50 (UACC-62): > 500 µM (inactive)
- GI50 (DMS-114): > 500 µM (inactive)
- GI50 (SNB-19): > 500 µM (inactive)
- GI50 (SK-MEL-2): > 500 µM (inactive)
- GI50 (OVCAR-4): > 500 µM (inactive)
- GI50 (SF-539): > 500 µM (inactive)
- GI50 (NCI-H23): > 500 µM (inactive)
- GI50 (SK-OV-3): > 500 µM (inactive)
- GI50 (KM-20L2): > 500 µM (inactive)
- GI50 (OVCAR-8): > 500 µM (inactive)
- GI50 (RPMI-8226): > 500 µM (inactive)
- GI50 (CCRF-CEM): > 500 µM (inactive)
- GI50 (RXF 393): > 500 µM (inactive)
- GI50 (SN12C): > 500 µM (inactive)
- GI50 (A549): > 500 µM (inactive)
- GI50 (DMS-273): > 500 µM (inactive)
- GI50 (M19-MEL): > 500 µM (inactive)
- GI50 (NCI/ADR-RES): > 500 µM (inactive)
- GI50 (NCI-H460): > 500 µM (inactive)
- GI50 (UO-31): > 500 µM (inactive)
- GI50 (Malme-3M): > 500 µM (inactive)
- GI50 (U-251): > 500 µM (inactive)
- GI50 (UACC-257): > 500 µM (inactive)
- GI50 (COLO 205): > 500 µM (inactive)
- GI50 (SW-620): > 500 µM (inactive)
- GI50 (HCC 2998): > 500 µM (inactive)
- GI50 (HT-29): > 500 µM (inactive)
- GI50 (HOP-62): > 500 µM (inactive)
- GI50 (A498): > 500 µM (inactive)
- GI50 (NCI-H226): > 500 µM (inactive)
- GI50 (HL-60): > 500 µM (inactive)
- GI50 (SK-MEL-28): > 500 µM (inactive)
- GI50 (SK-MEL-5): > 500 µM (inactive)
- GI50 (K562): > 500 µM (inactive)
- GI50 (SNB-78): > 500 µM (inactive)
- GI50 (LOX IMVI): > 500 µM (inactive)
- GI50 (DLD-1): > 500 µM (inactive)
- GI50 (KM12): > 500 µM (inactive)
- GI50 (OVCAR-3): > 500 µM (inactive)
- GI50 (CAKI-1): > 500 µM (inactive)
- GI50 (HOP-18): > 500 µM (inactive)
- GI50 (MCF7): > 500 µM (inactive)
- GI50 (SF-268): > 500 µM (inactive)
- GI50 (HCT-116): > 500 µM (inactive)
- GI50 (HCT-15): > 500 µM
- GI50 (SF-295): > 500 µM (inactive)
- GI50 (HOP-92): 492 µM (inactive)
- GI50 (IGROV-1): > 500 µM (inactive)
- GI50 (MOLT-4): > 316 µM (inactive)
- GI50 (NCI-H522): > 500 µM (inactive)
- GI50 (OVCAR-5): > 356 µM (inactive)
- GI50 (SNB-75): > 500 µM (inactive)
- GI50 (EKVX): > 500 µM (inactive)
- GI50 (XF498): > 500 µM (inactive)
